The source made the active and inactive calls.
What was measured:
[1] = target: T1, Ferrochelatase, mitochondrial (Homo sapiens, UniProt P22830)
T1 sequence (P22830 whole entry): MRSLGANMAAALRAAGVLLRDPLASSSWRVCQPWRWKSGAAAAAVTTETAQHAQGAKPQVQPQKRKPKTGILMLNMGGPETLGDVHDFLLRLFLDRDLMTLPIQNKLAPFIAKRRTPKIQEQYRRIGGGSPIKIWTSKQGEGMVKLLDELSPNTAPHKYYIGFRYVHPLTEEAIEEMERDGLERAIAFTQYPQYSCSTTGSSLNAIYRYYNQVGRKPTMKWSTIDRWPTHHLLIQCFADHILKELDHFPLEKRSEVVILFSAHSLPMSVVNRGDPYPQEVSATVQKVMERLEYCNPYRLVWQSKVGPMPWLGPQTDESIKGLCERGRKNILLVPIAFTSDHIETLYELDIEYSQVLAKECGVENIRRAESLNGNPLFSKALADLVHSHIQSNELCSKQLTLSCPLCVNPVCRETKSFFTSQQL

[2] = target: 26S proteasome regulatory subunit 6B (Homo sapiens, UniProt P43686)
[3] = target: Adenosine kinase (Homo sapiens, UniProt P55263)
[4] = target: Myosin-14 (Homo sapiens, UniProt Q7Z406)
[5] = target: T2, Serine/threonine-protein kinase Nek2 (Homo sapiens, UniProt P51955)
T2 sequence (P51955 whole entry): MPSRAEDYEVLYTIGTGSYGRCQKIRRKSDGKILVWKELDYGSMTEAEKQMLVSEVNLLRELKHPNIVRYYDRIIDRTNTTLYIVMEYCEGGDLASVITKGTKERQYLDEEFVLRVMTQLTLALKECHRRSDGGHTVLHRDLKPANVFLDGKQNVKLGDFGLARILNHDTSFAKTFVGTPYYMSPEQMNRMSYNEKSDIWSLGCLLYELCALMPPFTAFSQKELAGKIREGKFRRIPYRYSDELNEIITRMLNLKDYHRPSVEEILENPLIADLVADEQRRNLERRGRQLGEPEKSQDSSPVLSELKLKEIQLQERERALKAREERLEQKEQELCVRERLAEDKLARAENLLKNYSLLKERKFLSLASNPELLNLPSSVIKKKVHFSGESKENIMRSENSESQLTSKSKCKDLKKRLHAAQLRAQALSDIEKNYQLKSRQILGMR

[6] = target: T3, Serine/threonine-protein kinase LATS1 (Homo sapiens, UniProt O95835)
T3 sequence (O95835 whole entry): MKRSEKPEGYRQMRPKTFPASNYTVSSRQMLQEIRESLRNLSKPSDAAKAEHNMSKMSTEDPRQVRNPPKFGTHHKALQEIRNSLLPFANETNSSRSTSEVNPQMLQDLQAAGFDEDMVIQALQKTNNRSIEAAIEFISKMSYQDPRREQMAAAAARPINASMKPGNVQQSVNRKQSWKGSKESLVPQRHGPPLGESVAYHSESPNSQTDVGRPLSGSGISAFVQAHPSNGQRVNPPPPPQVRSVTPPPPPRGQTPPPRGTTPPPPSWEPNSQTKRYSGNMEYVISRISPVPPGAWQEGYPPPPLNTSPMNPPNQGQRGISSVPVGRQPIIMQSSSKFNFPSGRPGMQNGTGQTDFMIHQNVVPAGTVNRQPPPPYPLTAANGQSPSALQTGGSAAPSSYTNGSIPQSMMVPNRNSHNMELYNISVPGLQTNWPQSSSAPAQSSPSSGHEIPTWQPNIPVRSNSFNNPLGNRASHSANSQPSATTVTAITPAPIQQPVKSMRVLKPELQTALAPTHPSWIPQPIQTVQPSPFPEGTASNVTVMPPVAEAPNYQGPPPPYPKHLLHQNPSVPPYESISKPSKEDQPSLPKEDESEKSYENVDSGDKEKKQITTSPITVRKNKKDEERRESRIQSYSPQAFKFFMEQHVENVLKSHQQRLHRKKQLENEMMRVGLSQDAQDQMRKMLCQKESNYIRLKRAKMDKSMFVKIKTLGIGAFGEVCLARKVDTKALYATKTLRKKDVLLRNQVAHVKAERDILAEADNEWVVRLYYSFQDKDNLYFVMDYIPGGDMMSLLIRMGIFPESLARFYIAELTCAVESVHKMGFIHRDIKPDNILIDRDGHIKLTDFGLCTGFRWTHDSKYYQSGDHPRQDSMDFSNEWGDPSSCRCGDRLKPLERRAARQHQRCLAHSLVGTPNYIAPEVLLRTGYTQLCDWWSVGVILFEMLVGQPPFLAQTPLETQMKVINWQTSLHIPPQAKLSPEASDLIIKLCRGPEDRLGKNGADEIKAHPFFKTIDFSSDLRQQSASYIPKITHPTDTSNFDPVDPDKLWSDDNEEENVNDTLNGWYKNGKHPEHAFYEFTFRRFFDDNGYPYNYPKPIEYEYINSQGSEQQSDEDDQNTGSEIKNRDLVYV

[7] = target: T4, Interleukin-1 receptor-associated kinase 4 (Homo sapiens, UniProt Q9NWZ3)
T4 sequence (Q9NWZ3 whole entry): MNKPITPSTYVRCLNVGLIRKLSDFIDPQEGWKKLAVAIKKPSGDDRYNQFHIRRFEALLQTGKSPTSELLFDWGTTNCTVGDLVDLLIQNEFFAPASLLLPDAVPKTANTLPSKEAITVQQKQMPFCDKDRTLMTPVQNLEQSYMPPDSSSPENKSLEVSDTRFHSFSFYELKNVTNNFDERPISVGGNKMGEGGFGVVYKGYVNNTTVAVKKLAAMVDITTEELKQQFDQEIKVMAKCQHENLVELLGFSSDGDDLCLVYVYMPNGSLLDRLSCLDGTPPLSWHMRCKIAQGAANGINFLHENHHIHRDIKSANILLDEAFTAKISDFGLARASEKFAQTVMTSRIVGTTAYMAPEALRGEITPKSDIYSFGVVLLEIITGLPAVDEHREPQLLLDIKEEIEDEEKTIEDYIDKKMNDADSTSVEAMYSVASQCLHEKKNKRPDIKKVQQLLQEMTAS

[8] = target: Aurora kinase B (Homo sapiens, UniProt Q96GD4)
Note: in the data inactive means no Kd found up to 30 µM.

Chain of Adenosine kinase (P55263 whole entry): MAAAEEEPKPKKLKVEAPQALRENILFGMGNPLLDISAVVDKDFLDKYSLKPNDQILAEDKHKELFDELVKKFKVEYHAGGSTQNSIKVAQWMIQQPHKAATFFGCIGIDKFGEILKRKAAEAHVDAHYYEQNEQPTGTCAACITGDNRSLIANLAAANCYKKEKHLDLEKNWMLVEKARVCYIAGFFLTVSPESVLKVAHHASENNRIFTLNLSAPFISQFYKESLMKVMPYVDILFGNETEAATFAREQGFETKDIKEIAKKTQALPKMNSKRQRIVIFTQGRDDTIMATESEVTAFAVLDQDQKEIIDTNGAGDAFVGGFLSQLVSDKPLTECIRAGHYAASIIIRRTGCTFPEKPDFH
Chain of 26S proteasome regulatory subunit 6B (P43686 whole entry): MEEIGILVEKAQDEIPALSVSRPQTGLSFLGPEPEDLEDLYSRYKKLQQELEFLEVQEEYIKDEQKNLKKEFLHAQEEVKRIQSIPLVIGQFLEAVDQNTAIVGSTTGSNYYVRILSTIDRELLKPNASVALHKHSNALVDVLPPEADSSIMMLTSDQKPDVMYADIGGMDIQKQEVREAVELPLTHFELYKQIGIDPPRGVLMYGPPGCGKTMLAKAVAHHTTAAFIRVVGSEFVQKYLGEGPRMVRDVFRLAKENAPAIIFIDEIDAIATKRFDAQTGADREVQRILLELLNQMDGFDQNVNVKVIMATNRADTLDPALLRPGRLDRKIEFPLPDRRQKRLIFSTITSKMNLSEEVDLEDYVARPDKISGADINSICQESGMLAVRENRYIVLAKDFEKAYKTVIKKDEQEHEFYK
Chain of Aurora kinase B (Q96GD4 whole entry): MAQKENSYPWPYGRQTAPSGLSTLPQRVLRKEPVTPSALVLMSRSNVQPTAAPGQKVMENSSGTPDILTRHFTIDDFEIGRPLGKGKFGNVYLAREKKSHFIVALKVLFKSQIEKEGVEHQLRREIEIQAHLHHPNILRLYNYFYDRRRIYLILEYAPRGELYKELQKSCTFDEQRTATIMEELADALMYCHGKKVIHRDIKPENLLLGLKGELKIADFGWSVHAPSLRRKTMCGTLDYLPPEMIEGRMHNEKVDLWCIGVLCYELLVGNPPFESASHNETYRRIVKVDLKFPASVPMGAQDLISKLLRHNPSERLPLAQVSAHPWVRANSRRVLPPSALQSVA
Chain of Myosin-14 (Q7Z406 whole entry): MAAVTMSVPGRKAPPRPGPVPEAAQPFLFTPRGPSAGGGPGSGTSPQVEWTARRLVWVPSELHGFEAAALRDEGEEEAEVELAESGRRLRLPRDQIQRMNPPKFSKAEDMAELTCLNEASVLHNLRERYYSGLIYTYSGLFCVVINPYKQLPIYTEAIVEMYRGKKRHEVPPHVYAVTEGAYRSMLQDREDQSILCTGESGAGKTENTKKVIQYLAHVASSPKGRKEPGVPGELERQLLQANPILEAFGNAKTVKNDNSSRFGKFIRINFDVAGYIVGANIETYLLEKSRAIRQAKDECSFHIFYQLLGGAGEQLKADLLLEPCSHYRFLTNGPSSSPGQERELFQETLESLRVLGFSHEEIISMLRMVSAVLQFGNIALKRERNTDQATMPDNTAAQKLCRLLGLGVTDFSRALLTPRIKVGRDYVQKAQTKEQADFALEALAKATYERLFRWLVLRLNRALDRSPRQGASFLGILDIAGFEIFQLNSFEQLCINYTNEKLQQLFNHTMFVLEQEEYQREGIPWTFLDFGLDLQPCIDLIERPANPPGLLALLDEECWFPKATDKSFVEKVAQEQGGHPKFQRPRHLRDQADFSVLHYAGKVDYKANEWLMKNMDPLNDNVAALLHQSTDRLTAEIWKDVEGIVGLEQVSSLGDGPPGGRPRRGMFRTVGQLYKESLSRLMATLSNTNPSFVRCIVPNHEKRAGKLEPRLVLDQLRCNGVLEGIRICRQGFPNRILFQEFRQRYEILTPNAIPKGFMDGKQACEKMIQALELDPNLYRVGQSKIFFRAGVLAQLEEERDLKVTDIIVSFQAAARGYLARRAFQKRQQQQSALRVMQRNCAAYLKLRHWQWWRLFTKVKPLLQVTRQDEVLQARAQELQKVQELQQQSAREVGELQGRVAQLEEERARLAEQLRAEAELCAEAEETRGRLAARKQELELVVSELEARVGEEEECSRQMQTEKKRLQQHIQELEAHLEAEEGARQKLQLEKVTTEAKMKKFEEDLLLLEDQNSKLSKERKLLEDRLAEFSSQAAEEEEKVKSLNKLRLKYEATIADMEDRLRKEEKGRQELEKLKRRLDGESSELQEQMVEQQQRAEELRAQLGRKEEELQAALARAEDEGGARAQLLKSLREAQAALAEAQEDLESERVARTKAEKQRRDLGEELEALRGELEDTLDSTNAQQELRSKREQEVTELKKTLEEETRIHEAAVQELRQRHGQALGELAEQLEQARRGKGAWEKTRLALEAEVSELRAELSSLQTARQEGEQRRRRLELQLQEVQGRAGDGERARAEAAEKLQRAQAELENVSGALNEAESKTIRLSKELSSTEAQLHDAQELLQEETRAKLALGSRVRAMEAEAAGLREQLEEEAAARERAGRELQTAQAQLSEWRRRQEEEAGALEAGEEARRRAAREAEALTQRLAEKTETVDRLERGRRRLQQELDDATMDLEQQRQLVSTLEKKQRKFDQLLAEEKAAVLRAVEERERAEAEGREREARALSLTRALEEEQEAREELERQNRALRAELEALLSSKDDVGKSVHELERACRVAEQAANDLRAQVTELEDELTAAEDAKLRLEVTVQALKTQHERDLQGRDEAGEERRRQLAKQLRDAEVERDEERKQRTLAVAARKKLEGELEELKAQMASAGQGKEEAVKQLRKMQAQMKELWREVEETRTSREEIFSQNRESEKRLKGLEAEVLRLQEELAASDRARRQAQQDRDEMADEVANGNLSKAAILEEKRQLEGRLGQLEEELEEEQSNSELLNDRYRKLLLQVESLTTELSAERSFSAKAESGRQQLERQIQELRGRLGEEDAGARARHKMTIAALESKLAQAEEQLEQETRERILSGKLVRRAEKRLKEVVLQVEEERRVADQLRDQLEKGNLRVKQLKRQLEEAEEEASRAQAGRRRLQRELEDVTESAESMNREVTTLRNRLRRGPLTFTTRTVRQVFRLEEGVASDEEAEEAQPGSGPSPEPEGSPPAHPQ

Kd [1] | Kd [2] | Kd [3] | Kd [4] | Kd [5] | Kd [6] | Kd [7] | SMILES | Kd [8]
> 30 µM (inactive) | > 30 µM (inactive) | > 30 µM (inactive) | > 30 µM (inactive) | > 30 µM (inactive) | > 30 µM (inactive) | > 30 µM (inactive) | O=C(O)c1ccc2c(c1)nc(Nc1cccc(Cl)c1)c1ccncc12 [SILMITASERTIB] | –
> 30 µM (inactive) | > 30 µM (inactive) | > 30 µM (inactive) | > 30 µM (inactive) | – | – | > 30 µM (inactive) | Cn1c(=O)n(-c2ccc(C(C)(C)C#N)cc2)c2c3cc(-c4cnc5ccccc5c4)ccc3ncc21 [DACTOLISIB] | –
> 30 µM (inactive) | > 30 µM (inactive) | > 30 µM (inactive) | – | > 30 µM (inactive) | > 30 µM (inactive) | > 30 µM (inactive) | CCOc1ccn(-c2ccc(F)cc2)c(=O)c1C(=O)Nc1ccc(Oc2ccnc(N)c2Cl)c(F)c1 [BMS-777607] | 1.07 µM (active)
> 30 µM (inactive) | > 30 µM (inactive) | > 30 µM (inactive) | > 30 µM (inactive) | – | – | – | Cn1cnc2c(F)c(Nc3ccc(Br)cc3Cl)c(C(=O)NOCCO)cc21 [SELUMETINIB] | –
> 30 µM (inactive) | > 30 µM (inactive) | > 30 µM (inactive) | > 30 µM (inactive) | – | – | – | COc1cc2c(Oc3ccc4[nH]c(C)cc4c3F)ncnc2cc1OCCCN1CCCC1 [CEDIRANIB] | –
> 30 µM (inactive) | > 30 µM (inactive) | > 30 µM (inactive) | > 30 µM (inactive) | > 30 µM (inactive) | 2.16 µM (active) | > 30 µM (inactive) | COc1cc(Nc2ncc(F)c(Nc3ccc4c(n3)N(COP(=O)(O)O)C(=O)C(C)(C)O4)n2)cc(OC)c1OC [FOSTAMATINIB] | –
> 30 µM (inactive) | > 30 µM (inactive) | 3.49 µM (active) | > 30 µM (inactive) | – | – | – | CN(C)C/C=C/C(=O)Nc1cc2c(Nc3ccc(F)c(Cl)c3)ncnc2cc1O[C@H]1CCOC1 [AFATINIB] | –

More lines, now with the values behind:

SMILES | Kd [1] | Kd [2] | Kd [3] | Kd [4] | Kd [5] | Kd [6] | Kd [7] | Kd [8]
C[C@]1(O)C[C@@H](c2nc(-c3ccc4ccc(-c5ccccc5)nc4c3)c3c(N)nccn32)C1 [LINSITINIB] | 4.21 µM (active) | > 30 µM (inactive) | > 30 µM (inactive) | > 30 µM (inactive) | – | – | – | –
CN(c1ncccc1CNc1nc(Nc2ccc3c(c2)CC(=O)N3)ncc1C(F)(F)F)S(C)(=O)=O [PF-00562271] | > 30 µM (inactive) | > 30 µM (inactive) | > 30 µM (inactive) | > 30 µM (inactive) | – | > 30 µM (inactive) | – | 1.04 µM (active)
O[C@H]1CC[C@H](Nc2ncc3nc(Nc4c(F)cc(F)cc4F)n([C@H]4CCOC4)c3n2)CC1 [TANZISERTIB] | > 30 µM (inactive) | > 30 µM (inactive) | > 30 µM (inactive) | – | > 30 µM (inactive) | > 30 µM (inactive) | > 30 µM (inactive) | > 30 µM (inactive)
CC1(COc2ccc3c(c2)ncn3-c2ccc3cccc(N4CCC(N)CC4)c3n2)COC1 [CRENOLANIB] | 7.35 µM (active) | > 30 µM (inactive) | > 30 µM (inactive) | > 30 µM (inactive) | > 30 µM (inactive) | 2.77 µM (active) | – | > 30 µM (inactive)
O=S(=O)(c1cccc2cnccc12)N1CCCNCC1 [FASUDIL] | > 30 µM (inactive) | > 30 µM (inactive) | > 30 µM (inactive) | > 30 µM (inactive) | – | – | – | –
COc1cc2c(N3CCN(C(=O)Nc4ccc(OC(C)C)cc4)CC3)ncnc2cc1OCCCN1CCCCC1 [TANDUTINIB] | > 30 µM (inactive) | > 30 µM (inactive) | > 30 µM (inactive) | > 30 µM (inactive) | – | – | – | –
CC(C)CC(=O)Nc1[nH]nc2c1CN(C(=O)C1CCN(C)CC1)C2(C)C [PHA-793887] | > 30 µM (inactive) | > 30 µM (inactive) | > 30 µM (inactive) | > 30 µM (inactive) | – | > 30 µM (inactive) | > 30 µM (inactive) | > 30 µM (inactive)
C=CCn1c(=O)c2cnc(Nc3ccc(N4CCN(C)CC4)cc3)nc2n1-c1cccc(C(C)(C)O)n1 [ADAVOSERTIB] | > 30 µM (inactive) | > 30 µM (inactive) | 0.013 µM (active) | > 30 µM (inactive) | – | > 30 µM (inactive) | > 30 µM (inactive) | –
CC1(C)CNc2cc(NC(=O)c3cccnc3NCc3ccncc3)ccc21 [MOTESANIB] | > 30 µM (inactive) | > 30 µM (inactive) | > 30 µM (inactive) | – | – | – | – | –
C[C@@]1(C(=O)Nc2ccc(F)nc2)CCCN1c1nc(Nc2cc(C3CC3)n[nH]2)c2cccn2n1 [BMS-754807] | > 30 µM (inactive) | > 30 µM (inactive) | > 30 µM (inactive) | – | – | – | – | –
CCc1nc(C(N)=O)c(Nc2ccc(N3CCC(N4CCN(C)CC4)CC3)c(OC)c2)nc1NC1CCOCC1 [GILTERITINIB] | > 30 µM (inactive) | > 30 µM (inactive) | > 30 µM (inactive) | > 30 µM (inactive) | 0.247 µM | 0.221 µM (active) | – | > 30 µM (inactive)
O=C(NOC[C@H](O)CO)c1ccc(F)c(F)c1Nc1ccc(I)cc1F [MIRDAMETINIB] | > 30 µM (inactive) | > 30 µM (inactive) | > 30 µM (inactive) | > 30 µM (inactive) | > 30 µM (inactive) | – | > 30 µM (inactive) | > 30 µM (inactive)
N#CCNC(=O)c1ccc(-c2ccnc(Nc3ccc(N4CCOCC4)cc3)n2)cc1 [MOMELOTINIB] | > 30 µM (inactive) | > 30 µM (inactive) | > 30 µM (inactive) | > 30 µM (inactive) | > 30 µM (inactive) | – | > 30 µM (inactive) | > 30 µM (inactive)
COc1cc2nccc(Oc3ccc(NC(=O)C4(C(=O)Nc5ccc(F)cc5)CC4)cc3)c2cc1OC [CABOZANTINIB] | 2.63 µM (active) | > 30 µM (inactive) | > 30 µM (inactive) | > 30 µM (inactive) | > 30 µM (inactive) | > 30 µM (inactive) | > 30 µM (inactive) | –
CCN(CCCOc1ccc2c(Nc3cc(CC(=O)Nc4cccc(F)c4)n[nH]3)ncnc2c1)CCOP(=O)(O)O [BARASERTIB] | > 30 µM (inactive) | > 30 µM (inactive) | > 30 µM (inactive) | > 30 µM (inactive) | – | > 30 µM (inactive) | > 30 µM (inactive) | –

Source: ChEMBL document CHEMBL3991601, “The target landscape of clinical kinase drugs” (Science, 2017)
